Columns and labels:
Assay type in all cases: in vivo
[1] = tested on: Sweet Potato Whitefly (Bemisia tabaci, BEMITA); assay: Bioassay 2: Sweet Potato Whitefly, spray on cotton seedlings at crawler emergence, nymphs counted 7-9 days after treatment; details: AI alone 0.1 (10-5) % w/v
How it was run: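 Cotton seedlings pruned to one true leaf were colonized by adult B. tabaci for 24 h egg-laying, then sprayed once >25% crawler emergence was underway; solutions 0.001% to 0.00000001% (w/v) in acetone/water with 0.025% Tween 20. Held ~25° C; live 2-3 instar nymphs counted 7-9 days later, Abbott-corrected % control.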

[2] = tested on: Western Flower Thrips (Frankliniella occidentalis, FRANOC); assay: Bioassay 3: Western Flower Thrips, cotton leaf disc dip, live WFT counted 3 days after treatment; details: Frankliniella occidentalis, foliar, 72 h; AI alone 0.0003125 % w/v
Protocol: Stock solutions of Formula One and various active ingredients were prepared initially at a concentration of 8 mg/ml for Formula One and 1 mg/mL for the active ingredients, respectively, using acetone as a diluent. Stock solutions were prepared with Formula One as well as for each of the active ingredients individually. Test solutions were prepared from the stock solutions. Test solutions were prepared containing Formula One, the individual active ingredients, and mixtures of Formula One with each of the active ingredients. The test solution for Formula One was prepared by adding 500 μL of the stock solution to a 25 mL glass vial, then adding 500 μL of acetone, followed by the addition of 9 mL water with 0.025% Tween®) 20 to create a 0.04% (w/v) solution. The test solutions of the individual active ingredients were prepared by adding 500 μL of stock solution to a 25 mL glass vial, then adding 500 μL of acetone, followed by the addition of 9 mL water with 0.025% Tween®) 20 to create a 0.005% (w/v) solution. The test solutions containing mixtures of Formula One and the individual active ingredients were prepared by adding 500 μL of the active ingredient stock solution to a 25 mL glass vial, followed by 500 μL of the Formula One stock solution, then by the addition of 9 mL water with 0.025% Tween®) 20 to create a test solution containing 0.04% (w/v) Formula One and 0.005% (w/v) of the active ingredient. Each test solution was serially diluted to create desired doses of test solutions (0.005% (w/v), 0.00125% (w/v), 0.0003125% (w/v), 0.000078% (w/v), and 0.0000195% (w/v)). In test solutions containing mixtures of Formula One and the active ingredients, the active ingredients were diluted as described above, but the Concentration of Formula One was held constant (0.04% (w/v)).
The test solutions were tested against WFT using the following procedure: Leaf discs (2.7 cm in diameter) were cut from the true leaves of cotton plants. Leaf discs were dipped into the test solutions and shaken to ensure complete coverage of the leaf disc and then placed in Millipore®) PetriSlides containing a filter paper disc. Treated leaf discs were air dried for approximately 1 hour. Each leaf disc was infested with 5 WFT (9-10-day old nymphs) by placement on each leaf disc, and the PetriSlides were capped to prevent escape. Each treatment was replicated three times and the test treatments were held at approximately 26° C. and ambient relative humidity (RH) prior to grading. Reference discs (solvent check) were treated with the diluent only. Evaluation was conducted by counting the number of live WFT under magnification 3 days after treatment. Percent control was measured using Abbott's correction formula (W. S. Abbott, J. Econ. Entomol. 18 (1925), pp. 265-267) as follows:
where X=No. of live nymphs on solvent check leaf discs and Y=No. of live nymphs on treated leaf discs. In Table B3 the “Expected % Control” was calculated using the method described in Colby S. R., Weeds, 1967, 15, 20-22. Bioassay 4: Western Tarnished Plant Bug (Lygus hesperus, LYGUHE) (“WTPB”).

[3] = tested on: Diamondback Moth (Plutella xylostella, PLUTMA); assay: Bioassay 6: Diamondback Moth, artificial lepidopteran diet, live larvae after 5 days; details: DBM; AI alone 0.04 % w/v
Protocol: where X=No. of live nymphs on solvent check and Y=No. of live nymphs on treated bean segments. In Table B5 the “Expected % Control” was calculated using the method described in Colby S. R., Weeds, 1967, 15, 20-22. Bioassay 6: Beet Armyworm (Spodoptera exigua, LAPHEG) (BAW), and Diamondback Moth (Plutella xylostella, PLUTMA) (DBM).
(§1) Stock solutions were prepared with Formula One as well as for each of the active ingredients individually. Test solutions were prepared from the stock solutions. Test solutions were prepared containing Formula One, the individual active ingredients, and mixtures of Formula One with each of the active ingredients. The test solution for Formula One was prepared by adding 500 μL of the stock solution to a 25 mL glass vial, then adding 500 μL of a 9:1 mixture of acetone: water. The individual active ingredients were prepared by adding 500 μL of stock solution to a 25 mL glass vial, then adding 500 μL of a 9:1 mixture of acetone: water. The test solutions containing mixtures of Formula One and the individual active ingredients were prepared by adding 500 μL of the active ingredient stock solution to a 25 mL glass vial, followed by 500 μL of the Formula One stock solution, creating a test solution containing 4000 ppm Formula One and 0.4% (w/v) of the active ingredient. Each test solution was serially diluted to create desired doses of test solutions (0.4% (w/v), 0.04% (w/v), 0.004% (w/v), 0.0004% (w/v), 0.00004% (w/v), and 0.000004% (w/v)). In test solutions containing mixtures of Formula One and the active ingredients, the active ingredients were diluted as described above, but the Concentration of Formula One was held constant (0.4% (w/v)). The highest dose test solution (0.4% (w/v)) was discarded, leaving 5 test solution concentrations used in the test.
The test solutions were tested against BAW and DBM using the following procedure: An artificial lepidopteran diet (Multispecies Lepidopteran Diet, Southland Products) was distributed in 128-cell bioassay trays (Frontier Agricultural Sciences™). 50 μL of test solution was pipetted into a cell in the bioassay tray. (The test solution doses of 0.04% (w/v), 0.004% (w/v), 0.0004% (w/v), 0.00004% (w/v), and 0.000004% (w/v) translated to concentrations of 5, 0.5, 0.05, 0.005, and 0.0005 ug/cm^2 on the diet, respectively.) A reference treatment (solvent check) was treated with the diluent only. […] After 5 days, the number of live larvae were recorded from each cell and percent control was measured using Abbott's correction formula (W. S. Abbott, J. Econ. Entomol. 18 (1925), pp. 265-267) as follows:
where X=No. of live larvae on solvent check and Y=No. of live larvae on treated diet. In Table B6 the “Expected % Control” was calculated using the method described in Colby S. R., Weeds, 1967, 15, 20-22. […]

[4] = tested on: Diamondback Moth (Plutella xylostella, PLUTMA); assay: Bioassay 9: Diamondback Moth, leaves of track-sprayed cabbage plants, mortality and feeding damage scored; details: Feeding damage control; AI alone 40 (10^-5) Wt %
[5] = tested on: Sweet Potato Whitefly (Bemisia tabaci, BEMITA); assay: Bioassay 8: Sweet Potato Whitefly, spray on cotton seedlings at crawler emergence, nymphs counted 7-9 days after treatment
Protocol: (§2) where X=No. of live aphids on solvent check plants and Y=No. of live aphids on treated plants. In Table B1 the “Expected % Control” was calculated using the method described in Colby S. R., Weeds, 1967, 15, 20-22. Bioassay 8: Sweet Potato Whitefly (Bemisia tabaci, BEMITA) (“SPW”).
Stock solutions were prepared with Formula One as well as for each of the active ingredients individually. Test solutions were prepared from the stock solutions. Test solutions were prepared containing Formula One, the individual active ingredients, and mixtures of Formula One with each of the active ingredients. The test solutions for Formula One and the individual active ingredients were prepared by adding 500 μL of stock solution to a 25 mL glass vial, then adding 500 μL of acetone, followed by the addition of 9 mL water with 0.025% Tween®) 20 to create a 0.001% (w/v) solution. The test solutions containing mixtures of Formula One and the individual active ingredients were prepared by adding 500 μL of the active ingredient stock solution to a 25 mL glass vial, followed by 500 μL of the Formula One stock solution, then by the addition of 9 mL water with 0.025% Tween®) 20 to create a test solution containing 0.001% (w/v) Formula One and 0.001% (w/v) of the active ingredient. Each test solution was serially diluted to create desired doses of test solutions (0.001% (w/v), 0.0001% (w/v), 0.00001% (w/v), 0.000001% (w/v), 0.0000001% (w/v), […] and 0.00000001% (w/v)).
The test solutions were tested against SPW using the following procedure: Cotton seedlings grown in 3-inch pots, pruned so that only one true leaf remained, were used as test substrate. Adult B. tabaci were allowed to colonize the cotton plants and lay eggs for 24 hours after which all adults were removed from the plants using compressed air. Plants were monitored for egg development and, when crawler emergence was underway (>25% emergence based on visual examination using a microscope), the plants were sprayed using the test solutions and methods described above for green peach aphids (GPA). Treated plants were held in a holding room at approximately 25° C. and ambient relative humidity (RH) prior to grading. Evaluation was conducted by counting the number of developed 2-3 instar nymphs per plant under a microscope 7-9 days after treatment. Percent control was measured using Abbott's correction formula (W. S. Abbott, J. Econ. Entomol. 18 (1925), pp. 265-267) as follows:
(§3) where X=No. of live nymphs on solvent check plants and Y=No. of live nymphs on treated plants. In Table B2 the “Expected % Control” was calculated using the method described in Colby S. R., Weeds, 1967, 15, 20-22. Bioassay 9: Diamondback Moth (Plutella xylostella, PLUTMA) (DBM).

[6] = tested on: Diamondback Moth (Plutella xylostella, PLUTMA); assay: Bioassay 9: Diamondback Moth, leaves of track-sprayed cabbage plants, mortality and feeding damage scored; details: AI alone 20 (10^-5) Wt %
Protocol: as §3, §1
Cabbage seedlings, grown in 3-inch pots with 2-3 small (3-5 centimeter (cm)) true leaves, were used as test substrate. Cabbage plants were sprayed with desired concentrations of Formula One and active ingredients or their mixtures using a track Sprayer. Reference plants (solvent check) were sprayed with diluent only (0.025% Tween® 20 and 10% acetone:methanol (1:1) in water). The sprayed cabbage plants were allowed to dry for 1 hour, after which leaves from each treatment were placed in a cell of a plastic tray. One leaf per cell and 8 replicates for each cell. The tested doses ranged between 0.000001% (w/v) to 0.0002% (w/v). One 2nd instar DBM larvae were placed in each cell of the tray and allowed to feed on the cabbage foliage for […] after which the mortality and feeding damage were scored. Test trays were held at approximately 26° C. and ambient relative humidity (RH) prior to grading. The number of live larvae were recorded from each cell and percent control was measured using Abbott's correction formula (W. S. Abbott, J. Econ. Entomol. 18 (1925), pp. 265-267) as follows:
where X=No. of live larvae on solvent check and Y=No. of live larvae on treated diet. In Table B6 the “Expected % Control” was calculated using the method described in Colby S. R., Weeds, 1967, 15, 20-22.

[7] = tested on: Cotton Aphid (Aphis gossypii, APHIGO); assay: Bioassay 7: Cotton Aphid, foliar spray on infested cotton seedlings, live aphids counted three days after treatment
Protocol: where X=No. of live larvae on solvent check and Y=No. of live larvae on treated diet. In Table B6 the “Expected % Control” was calculated using the method described in Colby S. R., Weeds, 1967, 15, 20-22. Bioassay 7: Cotton Aphid (Aphis gossypii, APHIGO) (“CA”).
Stock solutions of Formula One and one or more of the active ingredients were prepared at concentrations of 1 mg/mL using a 1:1 mixture of acetone: methanol as a diluent. The stock solutions were prepared with Formula One as well as for each of the active ingredients individually. Test solutions were prepared from the stock solutions. Test solutions were prepared containing Formula One, the individual active ingredients, and mixtures of Formula One with each of the active ingredients. The test solutions for Formula One and the individual active ingredients were prepared by adding 1.5 mL of stock solution to a 30 mL glass vial, then adding 1.5 mL of 1:1 acetone: methanol solvent, followed by the addition of 27 mL water with 0.025% Tween® 20 to create a […]. Each test solution was serially diluted to create desired doses of test solutions ranging from 0.000001 to 0.0025% (w/v). The test solutions were tested against CA using the following procedure: cotton seedlings were grown in 3-inch pots with one true leaf (2-5 cm in diameter) were used as test substrate. The seedlings were infested with 20-50 CA (wingless adult and nymph stages) one day prior to chemical application. Four pots with individual seedlings were used for each treatment. A hand-held aspirator-type sprayer was used for spraying a solution to both sides of […] leaves until runoff. Reference plants (solvent check) were sprayed with the diluent only (0.025% Tween® 20 and 10% acetone:methanol (1:1) in water). Treated plants were held in a holding room for three days at approximately 25° C. and ambient relative humidity (RH about 20% to about 45%) prior to grading. Evaluation was conducted by counting the number of live aphids per plant under a microscope three days after treatment. Percent control was measured using Abbott's correction formula (W. S. Abbott, J. Econ. Entomol. 18 (1925), pp. 265-267) as follows:
as §2

Molecule	Average % Control AI [1] [%]	pest or weed control at 0.0003125 % strength [2] [%]	Average % Control AI [3] [%]	Average % Control AI [4] [%]	Average % Control A1 ([5]; AI alone 0.1 (10^-5) Wt %) [%]	Average % Control A1 ([5]; AI alone 0.8 (10^-5) Wt %) [%]	Average % Control AI ([6]; Acute mortality) [%]	Average % Control AI ([6]; Feeding damage control) [%]	Average % Control A1 ([7]; AI alone 0.2 (10^-5) Wt %) [%]	Average % Control A1 ([7]; AI alone 7 (10^-5) Wt %) [%]	Average % Control A1 ([7]; AI alone 12 (10^-5) Wt %) [%]
CNC(=O)O/N=C(\SC)C(=O)N(C)C [Oxamyl]	0	0	0	–	–	–	–	–	–	–	–
Spidoximat	–	–	–	37.98	37.90	62.26	0.00	17.83	13.25	32.54	35.09

Reference: patent US20250338846A1, “COMPOSITIONS HAVING PESTICIDAL UTILITY AND PROCESSES RELATED THERETO” (CORTEVA AGRISCIENCE, LLC, priority 2022, published 2025)
